{"source": "patent US7212853B1", "about": "(priority 1996, dated 2007)", "experiment": "Transdermal electrotransport delivery of goserelin at current densities of 50 and 100 μA/cm^2 (Example 3)", "format": "in vivo, human", "details": "for average transdermal goserelin flux: 8 hours, 12 volunteers", "description": "This study was undertaken to evaluate the relationship between current density and drug flux in the transdermal electrotransport delivery of goserelin. The study involved the application of electrotransport devices, applying constant current, to 12 normal male volunteers for a duration of 8 hours.\nThe two electrotransport treatment regimens in this study differed only in applied current density levels. The electrotransport devices delivered goserelin through the skin from polyvinyl alcohol (PVOH)-based donor hydrogels having a skin-contact surface area of 4 cm^2. The gels contained an aqueous goserelin solution. The current density levels used in this study were 50 and 100 μA/cm^2. After an 8 hour treatment period, the electrotransport devices were removed. The skin site was then washed to remove any residual goserelin. All 12 volunteers received each treatment seven days apart.\nFor each treatment, seven blood samples were taken over a 24 hour period commencing with the application of current from the electrotransport devices. Serum goserelin concentrations from each patient were used to calculate mean drug flux and the mean total amount of drug delivered.", "data": [{"molecule": "CC(C)C[C@H](NC(=O)[C@@H](COC(C)(C)C)NC(=O)[C@H](Cc1ccc(O)cc1)NC(=O)[C@H](CO)NC(=O)[C@H](Cc1c[nH]c2ccccc12)NC(=O)[C@H](Cc1cnc[nH]1)NC(=O)[C@@H]1CCC(=O)N1)C(=O)N[C@@H](CCCNC(=N)N)C(=O)N1CCC[C@H]1C(=O)NNC(N)=O", "note": "[goserelin]", "values": [{"measurement": "average transdermal goserelin flux", "setting": "50 μA/cm^2, constant current", "value": 5.8, "unit": "µg/h"}, {"measurement": "average transdermal goserelin flux", "setting": "100 μA/cm^2, constant current", "value": 21.6, "unit": "µg/h"}, {"measurement": "increase in drug flux", "setting": "current density rises from 50 to 100 μA/cm^2", "value": "four"}]}]}
